According to ChEMBL document CHEMBL5108004, “An auristatin-based peptide-drug conjugate targeting Kita-Kyushu lung cancer antigen 1 for precision chemoradiotherapy in gastric cancer” (Eur J Med Chem, 2022):
Active and inactive are the calls of the source. No cut-off for these calls is given here. *1 amine or outer side, *2 acyl side, *3 side chain or, on linkers, in order; H or OH if unused. Where a SMILES comes first, the peptide text is derived from it. Bridges are numbered along the chain shown (N, C = ends). Roman numbers before positions name the chains, in order. [ ]: non-standard residue; d: D form. The star is where a group is joined. Hexanoyl(6-succinimido-3yl) = O=C1CC([*:1])C(=O)N1CCCCCC(=O)[*:2]; Dolaproine = CO[C@@H]([C@@H]1CCCN1)[C@@H](C)C(=O)O; Dil = CC[C@H](C)[C@H](NC)[C@@H](CC(=O)O)OC; PABC = O=C(OCc1ccc(N[*:1])cc1)[*:2]; X1 = C[C@@H](N*)[C@@H](O)c1ccccc1; Cit = NC(=O)NCCC[C@H](N)C(=O)O; NMeV = CN[C@H](C(=O)O)C(C)C

What was measured:
[1] = Toxicity in male BALB/c nude mouse xenografted with KK-LC-1-positive human MKN-45 cells assessed as body weight loss at 1 mg/kg, iv administered twice a week for 3 weeks; assay type: organism-based; settings: in vivo, 504 h
[2] = Toxicity in male BALB/c nude mouse xenografted with KK-LC-1-positive human NUGC-4 cells assessed as median survival time at 0.3 mg/kg, iv administered once a week for 3 weeks; assay type: organism-based; settings: in vivo, 504 h
NUGC-4 [3] = test: Antitumor activity against KK-LC-1-positive human NUGC-4 cells xenografted in male BALB/c nude mouse assessed as decrease in Ki67 at 0.3 mg/kg, iv administered once a week for 3 weeks followed by exposure to 2 Gy gamma irradiation for 2 consecutive days once a week for 3 weeks measured by immunohistochemical staining analysis; assay type: functional, organism-based
[4] = Toxicity in male BALB/c nude mouse xenografted with KK-LC-1-positive human MKN-45 cells assessed as effect on kidney function at 1 mg/kg, iv administered twice a week for 3 weeks; assay type: organism-based; settings: in vivo, 504 h
[5] = Toxicity in male BALB/c nude mouse xenografted with KK-LC-1-positive human NUGC-4 cells assessed as mouse survival at 0.3 mg/kg, iv administered once a week for 3 weeks followed by exposure to 2 Gy gamma irradiation for 2 consecutive days once a week for 3 weeks measured after 47 days; assay type: organism-based; settings: in vivo
MKN-45 [6] = test: Cell cycle arrest in KK-LC-1-positive human MKN-45 cells assessed as increase accumulation at G2/M phase at 20 to 100 nM measured after 24 hrs by propidium iodide staining based flow cytometric analysis; assay type: functional; settings: dose 20-100 nM, DDE = dose-dependent effect
[7] = Toxicity in male BALB/c nude mouse xenografted with KK-LC-1-positive human MKN-45 cells assessed as effect on liver function at 2 mg/kg, iv administered twice a week for 3 weeks; assay type: organism-based; settings: in vivo, 504 h
[8] = Stability in human plasma assessed as compound remaining at 500 uM measured after 48 hrs by HPLC analysis; assay type: ADME, cell-free; settings: read-out: Stability
[9] = Toxicity in male BALB/c nude mouse xenografted with KK-LC-1-positive human NUGC-4 cells assessed as effect on body weight at 0.3 mg/kg, iv administered once a week for 3 weeks followed by exposure to 2 Gy gamma irradiation for 2 consecutive days once a week for 3 weeks; assay type: organism-based; settings: in vivo, 504 h
MKN-45 [10] = test: Cell cycle arrest in KK-LC-1-positive human MKN-45 cells assessed as increase accumulation at G2/M phase at 100 nM measured after 0 to 48 hrs by propidium iodide staining based flow cytometric analysis; assay type: functional; settings: time 0-48 hrs, TDE = time-dependent effect
MKN-45 [11] = test: Induction of DNA damage in KK-LC-1-positive human MKN-45 cells assessed as double strand breaks by measuring increase in gamma-H2AX foci formation at 100 nM incubated for 24 hrs followed by exposure to 2 Gy gamma irradiation by immunofluorescence staining method; assay type: functional, cell-based
NUGC-4 [12] = test: Cytotoxicity against KK-LC-1-positive human NUGC-4 cells incubated for 72 hrs by CCK-8 assay; assay type: functional, cell-based; settings: NUGC-4, 72 h
MKN-45 [13] = test: Antitumor activity against KK-LC-1-positive human MKN-45 cells xenografted in male BALB/c nude mouse assessed as induction of tumor regression at 2 mg/kg, iv administered twice a week for 3 weeks; assay type: functional, organism-based
NUGC-4 [14] = test: Induction of apoptosis in KK-LC-1-positive human NUGC-4 cells at 100 nM incubated for 24 hrs followed by exposure to 2 Gy gamma irradiation by AnnexinV/PI-staining based flow cytometry; assay type: functional, cell-based
MKN-45 [15] = test: Inhibition of colony formation in KK-LC-1-positive human MKN-45 cells assessed as decrease in colonies incubated for 24 hrs followed by exposure to 2 Gy gamma irradiation by crystal violet staining based clonogenic assay; assay type: functional, cell-based
MKN-45 [16] = test: Antitumor activity against KK-LC-1-positive human MKN-45 cells xenografted in male BALB/c nude mouse assessed as reduction in tumor volume at 0.3 mg/kg, iv administered twice a week for 3 weeks; assay type: functional; design: scale not given: the % may be the effect or the level left
[17] = Toxicity in male BALB/c nude mouse xenografted with KK-LC-1-positive human MKN-45 cells assessed as body weight loss at 3 mg/kg, iv administered twice a week for 3 weeks; assay type: organism-based; settings: in vivo, 504 h
[18] = molecular target: T1, Kita-kyushu lung cancer antigen 1 (Homo sapiens) (UniProt Q5H943); test: Binding affinity to KK-LC-1 in KK-LC-1-positive human NUGC-4 cells using FITC-labeled compound at 1 to 1000 uM incubated for 30 mins and measured by flow cytometry assay; assay type: cell-based; settings: dose 1-1000 µM
T1 sequence (whole entry): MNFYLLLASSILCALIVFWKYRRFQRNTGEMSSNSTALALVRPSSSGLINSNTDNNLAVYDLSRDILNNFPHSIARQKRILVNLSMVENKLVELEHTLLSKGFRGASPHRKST

NUGC-4 [19] = test: Cell cycle arrest in KK-LC-1-positive human NUGC-4 cells assessed as accumulation at G2/M phase at 40 nM measured after 24 hrs by propidium iodide staining based flow cytometric analysis (reference value: 21.5 +/- 0.7 %); assay type: functional
[20] = molecular target: T1, Kita-kyushu lung cancer antigen 1 (Homo sapiens); test: Binding affinity to KK-LC-1 in KK-LC-1-positive human MKN-45 cells using FITC-labeled compound at 1 to 1000 uM incubated for 30 mins and measured by flow cytometry assay; assay type: cell-based; settings: dose 1-1000 µM
MKN-45 [21] = test: Antitumor activity against KK-LC-1-positive human MKN-45 cells xenografted in male BALB/c nude mouse assessed as induction of tumor regression at 1 mg/kg, iv administered twice a week for 3 weeks; assay type: functional, organism-based
[22] = Toxicity in male BALB/c nude mouse xenografted with KK-LC-1-positive human MKN-45 cells assessed as body weight loss at 0.3 mg/kg, iv administered twice a week for 3 weeks; assay type: organism-based; settings: in vivo, 504 h
[23] = Ratio IC50 for cytotoxicity against KK-LC-1-negative human HGC-27 cells to IC50 for cytotoxicity against KK-LC-1-positive human MKN-45 cells
NUGC-4 [24] = test: Cell cycle arrest in KK-LC-1-positive human NUGC-4 cells assessed as accumulation at G2/M phase at 20 nM measured after 24 hrs by propidium iodide staining based flow cytometric analysis (reference value: 21.5 +/- 0.7 %); assay type: functional
[25] = Toxicity in male BALB/c nude mouse xenografted with KK-LC-1-positive human NUGC-4 cells assessed as median survival time at 0.3 mg/kg, iv administered once a week for 3 weeks followed by exposure to 2 Gy gamma irradiation for 2 consecutive days once a week for 3 weeks measured after 47 days; assay type: organism-based; settings: in vivo, 504 h

## CC[C@H](C)[C@@H]([C@@H](CC(=O)N1CCC[C@H]1[C@H](OC)[C@@H](C)C(=O)N[C@H](C)[C@@H](O)c1ccccc1)OC)N(C)C(=O)[C@@H](NC(=O)[C@@H](NC(=O)[C@H](C(C)C)N(C)C(=O)OCc1ccc(NC(=O)[C@H](CCCNC(N)=O)NC(=O)[C@@H](NC(=O)CCCCCN2C(=O)CC(SC[C@H](N)C(=O)N[C@H]3CSSC[C@@H](C(=O)O)NC(=O)[C@H]([C@@H](C)O)NC(=O)[C@H]([C@@H](C)O)NC(=O)[C@H](CC(C)C)NC(=O)[C@H](C)NC(=O)[C@H]([C@@H](C)O)NC(=O)[C@H](CC(N)=O)NC(=O)[C@H](CCCCN)NC3=O)C2=O)C(C)C)cc1)C(C)C)C(C)C (stereo not given in full) (I: H-CCKNTALTTC-OH / II: V[Cit][PABC][NMeV]VV[Dil][Dolaproine]-X1; linker I:1-II:N via Hexanoyl(6-succinimido-3yl); disulfide I:2-I:10)
[1]
  Activity: Non-Toxic
[2]
  MST: 40 days
NUGC-4 [3]
  Activity: Active
[4]
  Activity: Non-Toxic
[5]
  survival at 504 h: 83.3%
MKN-45 [6]
  Activity: Dde
[7]
  Activity: Non-Toxic
[8]
  remaining at 48 h, 500 µM: 13.2%
[9]
  Activity: Non-Toxic
MKN-45 [10]
  Activity: Tde
MKN-45 [11]
  Activity: Active
NUGC-4 [12]
  IC50: 3.87 nM
MKN-45 [13]
  Activity: Active
NUGC-4 [14]
  Activity: Active
MKN-45 [15]
  inhibition: Active
MKN-45 [16]
  Activity: 48.5%
[17]
  Activity: Toxic
[18]
  Activity: Active
NUGC-4 [19]
  Activity: 49.53%
[20]
  Activity: Active
MKN-45 [21]
  Activity: Active
[22]
  Activity: Non-Toxic
[23]
  Ratio IC50: 100
NUGC-4 [24]
  Activity: 30.9%
[25]
  MST: 58 days
